Among the data in patent publication US11541055B2, “Inhibitors of human immunodeficiency virus replication” (ViiV Healthcare UK (No. 5) LIMITED, priority 2018, dated 2023) are CC50 and EC50 values, retold here.

The nature of data set [1]: Compound cytotoxicity, XTT-based colorimetric assay. Type of data set: cell-based. To be noted: human; uninfected MT2 cells, day 4, XTT. The method in brief: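 Run under the antiviral-assay protocol but without virus. Viability was read on day 4 and CC50 values were derived from the readout.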
A general note: Tetrazolium dyes change colour on reduction, which living cells bring about.

The subject of data set [2] is recombinant NL4-3 virus (Renilla luciferase) in MT-2 cells. The data set is described as follows: HIV cell culture assay (antiviral activity, luciferase readout). Type of data set: cell-based. To be noted: Renilla, NL43. The method in brief: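 Antiviral EC50 was derived via the median effect equation from luciferase signal. The signal came from MT-2 cultures infected for 4–5 days with a nef-deleted, Renilla luciferase-expressing NL4-3 reporter virus (made in 293T cells) in the presence of compound dilutions.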

Broadly, the CC50 is the concentration at which the toxic effect on the cells reaches its halfway point. Higher therefore signals lower toxicity to the cells. In general, EC50 refers to the concentration that produces a half-maximal response. In data set [1], `COc1nccnc1-c1ccc2c(=O)n(-c3ccc(Cl)c4c(NS(C)(=O)=O)nn(C)c34)c([C@H](Cc3cc(F)cc(F)c3)NC(=O)Cn3nc(C(F)F)c4c3C(F)(F)[C@@H]3C[C@H]43)nc2c1` (atropisomer, axis not shown; (P)) [Example 15, N—((S)-1-((3P)-3-(4-chloro-1-methyl-3-(methylsulfonamido)-1H-indazol-7-yl)-7-(3-methoxypyrazin-2-yl)-4-oxo-3,4-dihydroquinazolin-2-yl)-2-(3,5-difluorophenyl)ethyl)-2-((3bS,4aR)-3-(difluoromethyl)-5,5-difluoro-3b,4,4a,5-tetrahydro-1H-cyclopropa[3,4]cyclopenta[1,2-c]pyrazol-1-yl)acetamide] had a half-maximal cytotoxic concentration (CC50) at 4 days greater than 500 nM. The EC50 in data set [2] worked out at 0.15 nM.

The compound `CC(C)c1nccnc1-c1ccc2c(=O)n(-c3ccc(Cl)c4c(NS(C)(=O)=O)nn(C)c34)c([C@H](Cc3cc(F)cc(F)c3)NC(=O)Cn3nc(C(F)F)c4c3C(F)(F)[C@@H]3C[C@H]43)nc2c1` (atropisomer, axis not shown; (P)) [Example 16, N—((S)-1-((3P)-3-(4-chloro-1-methyl-3-(methylsulfonamido)-1H-indazol-7-yl)-7-(3-isopropylpyrazin-2-yl)-4-oxo-3,4-dihydroquinazolin-2-yl)-2-(3,5-difluorophenyl)ethyl)-2-((3bS,4aR)-3-(difluoromethyl)-5,5-difluoro-3b,4,4a,5-tetrahydro-1H-cyclopropa[3,4]cyclopenta[1,2-c]pyrazol-1-yl)acetamide] had a CC50 at 4 days in data set [1] greater than 500 nM. The 50% effective concentration (EC50) in data set [2] came out at 0.12 nM.

`CCc1nccnc1-c1ccc2c(=O)n(-c3ccc(Cl)c4c(NS(C)(=O)=O)nn(C)c34)c([C@H](Cc3cc(F)cc(F)c3)NC(=O)Cn3nc(C(F)F)c4c3C(F)(F)[C@@H]3C[C@H]43)nc2c1` (atropisomer, axis not shown; (P)) [Example 17, N—((S)-1-((3P)-3-(4-chloro-1-methyl-3-(methylsulfonamido)-1H-indazol-7-yl)-7-(3-ethylpyrazin-2-yl)-4-oxo-3,4-dihydroquinazolin-2-yl)-2-(3,5-difluorophenyl)ethyl)-2-((3bS,4aR)-3-(difluoromethyl)-5,5-difluoro-3b,4,4a,5-tetrahydro-1H-cyclopropa[3,4]cyclopenta[1,2-c]pyrazol-1-yl)acetamide] yielded a CC50 at 4 days in data set [1] greater than 500 nM. Moreover, the EC50 in data set [2] turned out to be 0.11 nM.

Turning to `Cn1nc(NS(C)(=O)=O)c2c(Cl)ccc(-n3c([C@H](Cc4cc(F)cc(F)c4)NC(=O)Cn4nc(C(F)F)c5c4C(F)(F)[C@@H]4C[C@H]54)nc4cc(-c5nccnc5CO)ccc4c3=O)c21` (atropisomer, axis not shown; (P)) [Example 18, N—((S)-1-((3P)-3-(4-chloro-1-methyl-3-(methylsulfonamido)-1H-indazol-7-yl)-7-(3-(hydroxymethyl)pyrazin-2-yl)-4-oxo-3,4-dihydroquinazolin-2-yl)-2-(3,5-difluorophenyl)ethyl)-2-((3bS,4aR)-3-(difluoromethyl)-5,5-difluoro-3b,4,4a,5-tetrahydro-1H-cyclopropa[3,4]cyclopenta[1,2-c]pyrazol-1-yl)acetamide], the CC50 at 4 days in data set [1] is greater than 500 nM. In addition, in data set [2], the EC50 turned out to be 0.099 nM.

`COc1nc2ccccc2nc1-c1ccc2c(=O)n(-c3ccc(Cl)c4c(NS(C)(=O)=O)nn(C)c34)c([C@H](Cc3cc(F)cc(F)c3)NC(=O)Cn3nc(C(F)F)c4c3C(F)(F)[C@@H]3C[C@H]43)nc2c1` (atropisomer, axis not shown; (P)) [Example 19, N—((S)-1-((3P)-3-(4-chloro-1-methyl-3-(methylsulfonamido)-1H-indazol-7-yl)-7-(3-methoxyquinoxalin-2-yl)-4-oxo-3,4-dihydroquinazolin-2-yl)-2-(3,5-difluorophenyl)ethyl)-2-((3bS,4aR)-3-(difluoromethyl)-5,5-difluoro-3b,4,4a,5-tetrahydro-1H-cyclopropa[3,4]cyclopenta[1,2-c]pyrazol-1-yl)acetamide] returned a CC50 at 4 days in data set [1] greater than 500 nM. For the same compound, the EC50 in data set [2] amounted to 5.5 nM.

`Cn1nc(NS(C)(=O)=O)c2c(Cl)ccc(-n3c([C@H](Cc4cc(F)cc(F)c4)NC(=O)Cn4nc(C(F)F)c5c4C(F)(F)[C@@H]4C[C@H]54)nc4cc(-c5ncccc5F)ccc4c3=O)c21` (atropisomer, axis not shown; (P)) [Example 21, N—((S)-1-((3P)-3-(4-chloro-1-methyl-3-(methylsulfonamido)-1H-indazol-7-yl)-7-(3-fluoropyridin-2-yl)-4-oxo-3,4-dihydroquinazolin-2-yl)-2-(3,5-difluorophenyl)ethyl)-2-((3bS,4aR)-3-(difluoromethyl)-5,5-difluoro-3b,4,4a,5-tetrahydro-1H-cyclopropa[3,4]cyclopenta[1,2-c]pyrazol-1-yl)acetamide] registered a CC50 at 4 days in data set [1] greater than 500 nM. Moreover, the half-maximal effective concentration (EC50) in data set [2] amounted to 0.091 nM.

`Cc1ccc(F)c(-c2ccc3c(=O)n(-c4ccc(Cl)c5c(NS(C)(=O)=O)nn(C)c45)c([C@H](Cc4cc(F)cc(F)c4)NC(=O)Cn4nc(C(F)F)c5c4C(F)(F)[C@@H]4C[C@H]54)nc3c2)n1` (atropisomer, axis not shown; (P)) [Example 22, N—((S)-1-((3P)-3-(4-chloro-1-methyl-3-(methylsulfonamido)-1H-indazol-7-yl)-7-(3-fluoro-6-methylpyridin-2-yl)-4-oxo-3,4-dihydroquinazolin-2-yl)-2-(3,5-difluorophenyl)ethyl)-2-((3bS,4aR)-3-(difluoromethyl)-5,5-difluoro-3b,4,4a,5-tetrahydro-1H-cyclopropa[3,4]cyclopenta[1,2-c]pyrazol-1-yl)acetamide] came in with a 50% cytotoxic concentration (CC50) at 4 days in data set [1] greater than 500 nM. Moreover, the EC50 in data set [2] was found to be 0.11 nM.

The compound `Cn1nc(NS(C)(=O)=O)c2c(Cl)ccc(-n3c([C@H](Cc4cc(F)cc(F)c4)NC(=O)Cn4nc(C(F)F)c5c4C(F)(F)[C@@H]4C[C@H]54)nc4cc(-c5ccccc5C(F)(F)F)ccc4c3=O)c21` (atropisomer, axis not shown; (P)) [Example 24, N—((S)-1-((3P)-3-(4-chloro-1-methyl-3-(methylsulfonamido)-1H-indazol-7-yl)-4-oxo-7-(2-(trifluoromethyl)phenyl)-3,4-dihydroquinazolin-2-yl)-2-(3,5-difluorophenyl)ethyl)-2-((3bS,4aR)-3-(difluoromethyl)-5,5-difluoro-3b,4,4a,5-tetrahydro-1H-cyclopropa[3,4]cyclopenta[1,2-c]pyrazol-1-yl)acetamide] registered a CC50 at 4 days in data set [1] greater than 500 nM. In data set [2], the concentration for a half-maximal effect (EC50) worked out at 0.84 nM.

Consider `Cn1nc(NS(C)(=O)=O)c2c(Cl)ccc(-n3c([C@H](Cc4cc(F)cc(F)c4)NC(=O)Cn4nc(C(F)F)c5c4C(F)(F)[C@@H]4C[C@H]54)nc4cc(-c5ccccc5OC(F)F)ccc4c3=O)c21` (atropisomer, axis not shown; (P)) [Example 25, N—((S)-1-((3P)-3-(4-chloro-1-methyl-3-(methylsulfonamido)-1H-indazol-7-yl)-7-(2-(difluoromethoxy)phenyl)-4-oxo-3,4-dihydroquinazolin-2-yl)-2-(3,5-difluorophenyl)ethyl)-2-((3bS,4aR)-3-(difluoromethyl)-5,5-difluoro-3b,4,4a,5-tetrahydro-1H-cyclopropa[3,4]cyclopenta[1,2-c]pyrazol-1-yl)acetamide], for which the CC50 at 4 days in data set [1] is greater than 500 nM. The EC50 in data set [2] came out at 0.85 nM.

In turn, `Cc1ncc(-c2ccc3c(=O)n(-c4ccc(Cl)c5c(NS(C)(=O)=O)nn(C)c45)c([C@H](Cc4cc(F)cc(F)c4)NC(=O)Cn4nc(C(F)F)c5c4C(F)(F)[C@@H]4C[C@H]54)nc3c2)s1` (atropisomer, axis not shown; (P)) [Example 26, N—((S)-1-((3P)-3-(4-chloro-1-methyl-3-(methylsulfonamido)-1H-indazol-7-yl)-7-(2-methylthiazol-5-yl)-4-oxo-3,4-dihydroquinazolin-2-yl)-2-(3,5-difluorophenyl)ethyl)-2-((3bS,4aR)-3-(difluoromethyl)-5,5-difluoro-3b,4,4a,5-tetrahydro-1H-cyclopropa[3,4]cyclopenta[1,2-c]pyrazol-1-yl)acetamide] displayed a CC50 at 4 days in data set [1] greater than 500 nM. For the same compound, the EC50 in data set [2] was determined as 0.11 nM.

Turning to `CN(c1ccccc1-c1ccc2c(=O)n(-c3ccc(Cl)c4c(NS(C)(=O)=O)nn(C)c34)c([C@H](Cc3cc(F)cc(F)c3)NC(=O)Cn3nc(C(F)F)c4c3C(F)(F)[C@@H]3C[C@H]43)nc2c1)S(C)(=O)=O` (atropisomer, axis not shown; (P)) [Example 27, N—((S)-1-((3P)-3-(4-chloro-1-methyl-3-(methylsulfonamido)-1H-indazol-7-yl)-7-(2-(N-methylmethylsulfonamido)phenyl)-4-oxo-3,4-dihydroquinazolin-2-yl)-2-(3,5-difluorophenyl)ethyl)-2-((3bS,4aR)-3-(difluoromethyl)-5,5-difluoro-3b,4,4a,5-tetrahydro-1H-cyclopropa[3,4]cyclopenta[1,2-c]pyrazol-1-yl)acetamide], the CC50 at 4 days in data set [1] was greater than 500 nM. Besides, in data set [2], the 50% effective concentration (EC50) was found to be 0.49 nM.

With `Cn1nc(NS(C)(=O)=O)c2c(Cl)ccc(-n3c([C@H](Cc4cc(F)cc(F)c4)NC(=O)Cn4nc(C(F)F)c5c4C(F)(F)[C@@H]4C[C@H]54)nc4cc(-c5ncccc5C(F)(F)F)ccc4c3=O)c21` (atropisomer, axis not shown; (P)) [Example 30, N—((S)-1-((3P)-3-(4-chloro-1-methyl-3-(methylsulfonamido)-1H-indazol-7-yl)-4-oxo-7-(3-(trifluoromethyl)pyridin-2-yl)-3,4-dihydroquinazolin-2-yl)-2-(3,5-difluorophenyl)ethyl)-2-((3bS,4aR)-3-(difluoromethyl)-5,5-difluoro-3b,4,4a,5-tetrahydro-1H-cyclopropa[3,4]cyclopenta[1,2-c]pyrazol-1-yl)acetamide], the CC50 at 4 days in data set [1] was greater than 500 nM. In data set [2], the EC50 amounted to 0.22 nM.
